We go through three molecules from paper PMC12136442, “Cholesterol metabolism and intrabacterial potassium homeostasis are intrinsically related in Mycobacterium tuberculosis” (PLOS Pathogens, 2025).

The target in assay [1] is T1, MceG (Mycobacterium tuberculosis, UniProt P9WQL5).
T1 construct: gene mkl

Assay [2] deals with T2, CeoB (Mycobacterium tuberculosis, UniProt Q7D6R7).
Assay [3] deals with T2, CeoB. The source holds these as a separate data set.

SMILES strings stand for the structures.

T2 sequence (Q7D6R7 entry or part of it): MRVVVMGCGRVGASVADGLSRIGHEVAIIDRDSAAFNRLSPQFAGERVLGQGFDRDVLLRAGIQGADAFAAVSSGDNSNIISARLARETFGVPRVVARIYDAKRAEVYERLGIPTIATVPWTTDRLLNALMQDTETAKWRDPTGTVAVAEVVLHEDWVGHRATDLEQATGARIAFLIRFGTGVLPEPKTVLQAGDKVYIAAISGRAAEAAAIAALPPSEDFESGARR
T1 sequence (P9WQL5 whole entry): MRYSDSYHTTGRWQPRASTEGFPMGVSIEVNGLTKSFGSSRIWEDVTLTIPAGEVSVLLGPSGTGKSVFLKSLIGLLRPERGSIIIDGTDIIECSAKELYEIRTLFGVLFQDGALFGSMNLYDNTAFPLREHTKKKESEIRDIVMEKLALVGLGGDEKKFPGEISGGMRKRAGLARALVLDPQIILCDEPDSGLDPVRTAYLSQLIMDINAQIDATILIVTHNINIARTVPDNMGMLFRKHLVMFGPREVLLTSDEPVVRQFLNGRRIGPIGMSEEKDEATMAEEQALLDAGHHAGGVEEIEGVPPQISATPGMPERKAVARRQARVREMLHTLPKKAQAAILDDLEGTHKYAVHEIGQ

As for `Nc1ncnc2c1ncn2[C@@H]1O[C@H](COP(=O)(O)OP(=O)(O)OP(=O)(O)O)[C@@H](O)[C@H]1O` [ATP], the “ADP-Glo kinase assay (luminescence)” value in assay [1] was “purified MceG exhibited ATPase activity”.

Regarding `CC(C)CCC[C@@H](C)[C@H]1CC[C@H]2[C@@H]3CC=C4C[C@@H](O)CC[C@]4(C)[C@H]3CC[C@]12C` [cholesterol], the “band intensity at 65oC/50oC” value in assay [2] is recorded as “the presence of cholesterol resulted in an increase in CeoB thermostability”.

With `CC(C)[C@@H](C)/C=C/[C@@H](C)[C@H]1CC[C@H]2C3=CC=C4C[C@@H](O)CC[C@]4(C)C3=CC[C@]12C` [dehydroergosterol, ergosta-5,7,9(11),22-tetraen-3β-ol], the “DHE fluorescence increase (ex 338 nm, em 381 nm)” value in assay [3] is listed as “incubation of CeoB with DHE resulted in significantly higher DHE fluorescence signal”.
